Where two headings read alike, the source gives them in different places.
Key:
TNFα = experiment: Cot Monocyte TNFα Cell Based Assay
Human Cot = Human Cot (Homo sapiens (Human), UniProt P41279); experiment: High Throughput Cot Biochemical Assay
[1] = Homo sapiens, Monocyte, read-out: EC50 TNF, LPS-stimulated human monocytes, TNFα
[2] = IC50 HTRF, Cot HTRF (TR-FRET) biochemical assay
[3] = Homo sapiens, Monocyte, read-out: EC50 TNF, LPS-stimulated human monocytes, TNFα TR-FRET
[4] = IC50 HTRF, Cot HTRF (TR-FRET KinEASE) biochemical assay, 400 μM ATP
[5] = read-out: EC50 TNF, LPS-stimulated human monocytes, TNFα
[6] = read-out: IC50 HTRF, Cot HTRF (TR-FRET) biochemical assay

Sequence of Human Cot (P41279 30-397): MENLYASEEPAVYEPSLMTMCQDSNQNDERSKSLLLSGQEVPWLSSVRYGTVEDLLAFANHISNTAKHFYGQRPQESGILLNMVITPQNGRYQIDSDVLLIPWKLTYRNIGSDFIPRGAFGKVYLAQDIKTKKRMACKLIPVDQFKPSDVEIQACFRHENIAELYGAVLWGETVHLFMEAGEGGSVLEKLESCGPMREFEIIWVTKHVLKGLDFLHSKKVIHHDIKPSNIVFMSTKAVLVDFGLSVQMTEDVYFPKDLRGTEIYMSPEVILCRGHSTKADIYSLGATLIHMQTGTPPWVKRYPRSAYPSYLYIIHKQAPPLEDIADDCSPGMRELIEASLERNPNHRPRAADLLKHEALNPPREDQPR

| EC50 (TNFα; [1]) | IC50 (Human Cot; [2]) | Compound | other results |
| --- | --- | --- | --- |
| 35 nM | 1 nM | N#CCC[C@@H](Nc1c(C#N)cnc2c(C#N)cc(N[C@H](c3cn(C4CC4)nn3)c3csc4c3CCN(C3COC3)C4)cc12)c1ccccc1 [Example 414, 4-(((R)-3-cyano-1-phenylpropyl)amino)-6-(((S)-(1-cyclopropyl-1H-1,2,3-triazol-4-yl)(6-(oxetan-3-yl)-4,5,6,7-tetrahydro-thieno[2,3-c]pyridin-3-yl)methyl)amino)-quinoline-3,8-dicarbonitrile] |  |
|  |  | Cn1c(=O)ccc2c([C@H](Nc3cc(C#N)c4ncc(C#N)c(NCC(C)(C)C)c4c3)c3cn(C45CC(C4)C5)nn3)cccc21 [Example 887, (S)-6-(((1-(bicyclo[1.1.1]pentan-1-yl)-1H-1,2,3-triazol-4-yl)(1-methyl-2-oxo-1,2-dihydroquinolin-5-yl)methyl)amino)-4-(neopentylamino)quinoline-3,8-dicarbonitrile] | EC50 (TNFα; [3]): 33 nM; IC50 (Human Cot; [4]): 3 nM |
| 29 nM | 2 nM | CC(C)(C)CNc1c(C#N)cnc2c(C#N)cc(N[C@H](c3cn(C4(C(F)F)CC4)nn3)c3cccc4ncccc34)cc12 [Example 550, (S)-6-(((1-(1-(difluoromethyl)cyclopropyl)-1H-1,2,3-triazol-4-yl)(quinolin-5-yl)methyl)amino)-4-(neopentylamino)-quinoline-3,8-dicarbonitrile] |  |
|  |  | C[C@@H](CF)n1cc([C@@H](Nc2cc(C#N)c3ncc(C#N)c(NCC(C)(C)C)c3c2)c2cccc3ncccc23)nn1 [Example 892, 6-(((S)-(1-((S)-1-fluoropropan-2-yl)-1H-1,2,3-triazol-4-yl)(quinolin-5-yl)methyl)amino)-4-(neopentylamino)quinoline-3,8-dicarbonitrile] | EC50 (TNFα; [3]): 44 nM; IC50 (Human Cot; [4]): 2 nM |
| 45 nM | 3 nM | Cc1nc(F)ccc1[C@H](Nc1cc(C#N)c2ncc(C#N)c(NCC(C)(C)C)c2c1)c1cn(C2(C(F)(F)F)CC2)nn1 [Example 471, (S)-6-(((6-fluoro-2-methylpyridin-3-yl)(1-(1-(trifluoromethyl)cyclopropyl)-1H-1,2,3-triazol-4-yl)methyl)amino)-4-(neopentyl-amino)quinoline-3,8-dicarbonitrile] |  |
| 28 nM | 2 nM | Cn1ccc2c([C@H](Nc3cc(Cl)c4ncc(C#N)c(NCC(C)(C)C)c4c3)c3cn(C4CC4)nn3)cccc2c1=O [Example 745, (S)-8-chloro-6-(((1-cyclopropyl-1H-1,2,3-triazol-4-yl)(2-methyl-1-oxo-1,2-dihydroisoquinolin-5-yl)methyl)amino)-4-(neopentylamino)quinoline-3-carbonitrile] |  |
| 151 nM | 5 nM | Cc1nc(F)ccc1[C@H](Nc1cc(Cl)c2ncc(C#N)c(NCC(C)(C)C)c2c1)c1cn(C2(C(=O)N3CCCC3)CC2)nn1 [Example 554, (S)-8-chloro-6-(((6-fluoro-2-methylpyridin-3-yl)(1-(1-(pyrrolidine-1-carbonyl)cyclopropyl)-1H-1,2,3-triazol-4-yl)methyl)amino)-4-(neopentylamino)quinoline-3-carbonitrile] |  |
|  |  | Cc1nc(F)ccc1[C@H](Nc1cc(Cl)c2ncc(C#N)c(NCC(C)(C)C)c2c1)c1cn(C2(C3CC3)CC2)nn1 [Example 547] | EC50 (TNFα; [5]): 33 nM; IC50 (Human Cot; [6]): 2 nM |
| 144 nM | 3 nM | [2H][C@@](Nc1cc(Cl)c2ncc(C#N)c(N[C@H](CC)c3ccccc3)c2c1)(c1cn(C2CC2)nn1)c1cccnc1F [Example 105, 8-chloro-6-(((S)-(1-cyclopropyl-1H-1,2,3-triazol-4-yl)(2-fluoropyridin-3-yl)methyl-d)amino)-4-(((R)-1-phenylpropyl)amino)quinoline-3-carbonitrile] |  |
| 109 nM | 6 nM | Cc1nc(F)ccc1[C@H](Nc1cc(Cl)c2ncc(C#N)c(NCC(C)(C)C(F)(F)F)c2c1)c1cn(C2(C(F)(F)F)CC2)nn1 [Example 721, (S)-8-chloro-6-(((6-fluoro-2-methylpyridin-3-yl)(1-(1-(trifluoromethyl)cyclopropyl)-1H-1,2,3-triazol-4-yl)methyl)amino)-4-((3,3,3-trifluoro-2,2-dimethylpropyl)amino)quinoline-3-carbonitrile] |  |
|  |  | Cn1ccc2c([C@H](Nc3cc(C#N)c4ncc(C#N)c(NCC(C)(C)C)c4c3)c3cn(C4(CF)CC4)nn3)cccc2c1=O [Example 878, (S)-6-(((1-(1-(fluoromethyl)cyclopropyl)-1H-1,2,3-triazol-4-yl)(2-methyl-1-oxo-1,2-dihydroisoquinolin-5-yl)methyl)amino)-4-(neopentylamino)quinoline-3,8-dicarbonitrile] | EC50 (TNFα; [3]): 31 nM; IC50 (Human Cot; [4]): 2 nM |
| 102 nM |  | Cc1ncccc1[C@H](Nc1cc(Cl)c2ncc(C#N)c(Nc3cccc(Cl)c3F)c2c1)c1cn(C2CCN(C(C)(C)C)CC2)nn1 [Example 247, (S)-6-(((1-(1-(tert-butyl)piperidin-4-yl)-1H-1,2,3-triazol-4-yl)(2-methylpyridin-3-yl)methyl)amino)-8-chloro-4-((3-chloro-2-fluorophenyl)amino)quinoline-3-carbonitrile] | IC50 (Human Cot; [6]): 2 nM |
|  |  | CC(C)(C)CNc1c(C#N)cnc2c(Cl)cc(N[C@H](c3cn(C4(C(F)F)CC4)nn3)c3cccc4[nH]ncc34)cc12 [Example 500, (S)-8-chloro-6-(((1-(1-(difluoromethyl- )cyclopropyl)-1H-1,2,3-triazol-4-yl)(1H-indazol-4-yl)methyl)amino)-4-(neopentylamino)quinoline-3-carbonitrile] | EC50 (TNFα; [5]): 321 nM; IC50 (Human Cot; [6]): 8 nM |
| 230 nM | 16 nM | Cc1nc(F)ccc1[C@H](Nc1cc(Cl)c2ncc(C#N)c(NCC(C)(C)C)c2c1)c1nnn(C2(C(F)F)CC2)c1I [Example 707, (S)-8-chloro-6-(((1-(1-(difluoromethyl)cyclopropyl)-5-iodo-1H-1,2,3-triazol-4-yl)(6-fluoro-2-methylpyridin-3-yl)methyl)amino)-4-(neopentylamino)quinoline-3-carbonitrile] |  |
|  |  | N#Cc1cnc2c(Cl)cc(N[C@@H](c3cccnc3)c3cn(C4COC4)nn3)cc2c1N[C@H](CCO)c1ccccc1 [Example 183, 8-chloro-4-(((R)-3-hydroxy-1-phenylpropyl)amino)-6-(((S)-(1-(oxetan-3-yl)-1H-1,2,3-triazol-4-yl)(pyridin-3-l)methyl)amino)-quinoline-3-carbonitrile] | EC50 (TNFα; [5]): > 10000 nM; IC50 (Human Cot; [6]): 357 nM |
| 1110 nM | 7 nM | Cc1ncccc1[C@H](Nc1cc(Cl)c2ncc(C#N)c(Nc3cnc(F)c(F)c3)c2c1)c1c[nH]nn1 [Example 173, (S)-8-chloro-4-((5,6-difluoropyridin-3-yl)amino)-6-(((2-methylpyridin-3-yl)(1H-1,2,3-triazol-4-yl)methyl)amino)quinoline-3-carbonitrile] |  |
|  |  | Cn1ncc2cccc([C@H](Nc3cc(C#N)c4ncc(C#N)c(NCC(C)(C)C)c4c3)c3cn(C4(C(F)F)CC4)nn3)c21 [Example 605] | EC50 (TNFα; [5]): 30 nM; IC50 (Human Cot; [6]): 3 nM |
| 286 nM | 4 nM | N#Cc1cnc2c(Cl)cc(N[C@@H](c3cccnc3)c3c[nH]nn3)cc2c1Nc1ccc(F)c(Cl)c1 [Example 308, (S)-8-chloro-4-((3-chloro-4-fluorophenyl)amino)-6-((pyridin-3-yl(1H-1,2,3-triazol-4-yl)methyl)amino)-quinoline-3-carbonitrile] |  |

— patent US11066414B2, “Cot modulators and methods of use thereof” (Gilead Sciences, Inc., priority 2015, dated 2021)
